The values that follow come from patent US10590126B2, “Non-selective protease activated receptor 4 ALA120THR isoform antagonist” (THOMAS JEFFERSON UNIVERSITY, priority 2015, dated 2020).

In experiment [1] the test system is PAR4 Ala120 and Thr120 variants. Briefly: PAR4-induced platelet activation, platelets of subjects of the 3 genotypes (FIG. 1). It is filed as cell-based, human. The following applies: subjects with and without the Thr120 variant (Ala/Ala, Ala/Thr, Thr/Thr). The protocol:
FIG. 1. Summary of results using all three PAR4 variants. […] Data are shown as the average of the percent of maximal activation, where maximal activation was the DMSO data.
[…] of mouse or PAC1 was added to each sample of platelets that contained compounds. 5 mL of compound was added to inhibitor samples. Tyrodes with 1% final concentration, DMSO were added to inhibitor samples with no controls. Each sample was incubated for two minutes. 5.5 mL of PAR4-AP was added to all samples except the no agonist control. Final concentrations of samples=[…]. Samples were gently mixed and sat at room temperature for 10 minutes. 50 mL of 2% paraformaldehyde was added to each sample and sat at room temperature for 10 minutes. 500 mL of Tyrodes were then added and samples were run of the C6 Accuri.

Experiment [2] deals with platelets expressing PAR4 Ala120. As to conditions: individuals expressing PAR4 Ala120; cited from earlier work.
Experiment [3] relates to platelets expressing PAR4 Thr120. As to conditions: individuals expressing PAR4 Thr120; cited from earlier work.

“Also recorded” adds a separate entry of the source.

On to `CCCNCc1c(-c2ccccc2)c2cc([N+](=O)[O-])ccc2n1C` [VU0478046-1], for which the results for the “blockade of PAR4-induced platelet activation” value in experiment [1] and in experiment [1] (listed as VU478046-1) were “effectively blocked” and “greatest effective blockade”, respectively.

As to `COC(=O)[C@H](c1ccccc1Cl)N1CCc2sccc2C1` [clopidogrel], the figures for the inhibiting platelet aggregation entry in experiment [2] and in experiment [3] were “selective” and “not effective”, respectively. For `Cn1c(CO)c(-c2ccccc2)c2cc([N+](=O)[O-])ccc21` [VU0099704-4], in experiment [1], the “blockade of PAR4-induced platelet activation” value was “effectively blocked; also recorded: greatest effective blockade”. The same measure, in the same setting: then `CNCc1c(-c2ccccc2)c2cc([N+](=O)[O-])ccc2n1C` [VU0478944-1], with “effectively blocked; also recorded: greatest effective blockade”.
